Measured values from ChEMBL document CHEMBL1121518, “Congeners of the beta conformer of dopamine derived from cis- and trans-octahydrobenzo[f]quinoline and trans-octahydrobenzo[g]quinoline” (1980).

Key:
Canis familiaris [1] = test: Tested for mean blood pressure in dog before drug administration; type: functional, Canis lupus familiaris
Felis catus = species on record: Felis catus; test: Tested for inhibition of cardioaccelerator nerves of cat; type: functional; conditions: read-out: ID50 (the source's name)
Canis familiaris [2] = test: Tested for mean heart rate in dog before drug administration; type: functional, Canis lupus familiaris
Canis familiaris [3] = species on record: Canis familiaris; test: Tested for mean blood pressure in dog after ID50 dose; type: functional, Canis lupus familiaris
Canis familiaris [4] = species on record: Canis familiaris; test: Tested for mean heart rate in dog after ID50 dose; type: functional, Canis lupus familiaris
[5] = target: T1, Alpha-1A adrenergic receptor (Homo sapiens) (UniProt P35348); test: Inhibitory activity against adrenergic alpha-receptor transmission, its effect being blocked by phentolamine; conditions: Felis catus
T1 sequence (whole entry): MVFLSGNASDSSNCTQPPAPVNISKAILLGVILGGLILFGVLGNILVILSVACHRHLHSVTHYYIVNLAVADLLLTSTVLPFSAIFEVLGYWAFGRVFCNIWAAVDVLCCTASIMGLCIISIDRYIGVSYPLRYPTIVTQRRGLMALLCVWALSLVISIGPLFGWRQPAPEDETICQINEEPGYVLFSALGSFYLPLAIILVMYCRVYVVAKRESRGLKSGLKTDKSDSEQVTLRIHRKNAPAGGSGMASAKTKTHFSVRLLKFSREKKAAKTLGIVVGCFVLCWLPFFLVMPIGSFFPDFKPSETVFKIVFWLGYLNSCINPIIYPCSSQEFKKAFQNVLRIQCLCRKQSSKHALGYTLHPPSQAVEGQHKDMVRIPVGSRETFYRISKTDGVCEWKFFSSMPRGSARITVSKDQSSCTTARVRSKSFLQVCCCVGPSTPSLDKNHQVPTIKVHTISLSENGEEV

Br.CCCN1CCC[C@@H]2c3cc(O)c(O)cc3CC[C@H]21
Activity (Canis familiaris [1]): 116.4 mmHg
ED50 (Felis catus): 0.0013 µmol/kg
Activity (Canis familiaris [2]): 178 beats min-1
Activity (Canis familiaris [3]): 73.6 mmHg
Activity (Canis familiaris [4]): 156.9 beats min-1

CN1CCc2cccc3c2[C@H]1Cc1ccc(O)c(O)c1-3 [APOMORPHINE]
Activity (Canis familiaris [1]): 109.5 mmHg
ED50 (Felis catus): 0.022 µmol/kg
Activity (Canis familiaris [2]): 139.2 beats min-1
Activity (Canis familiaris [3]): 92 mmHg
Activity (Canis familiaris [4]): 128.9 beats min-1

Br.CCN1CCCC2c3cc(O)c(O)cc3CCC21 (stereo unspecified)
Activity (Canis familiaris [1]): 115 mmHg
ED50 (Felis catus): 0.45 µmol/kg
Activity (Canis familiaris [2]): 183 beats min-1
Activity (Canis familiaris [3]): 89.8 mmHg
Activity (Canis familiaris [4]): 162.8 beats min-1

Br.CN1CCC[C@@H]2c3cc(O)c(O)cc3CC[C@H]21
Activity (Canis familiaris [1]): 116.7 mmHg
ED50 (Felis catus): 0.0055 µmol/kg
Activity (Canis familiaris [2]): 175.4 beats min-1
Activity (Canis familiaris [3]): 95.6 mmHg
Activity (Canis familiaris [4]): 160.9 beats min-1

Br.CCCN1CCCC2c3cc(O)c(O)cc3CCC21 (stereo unspecified)
Activity (Canis familiaris [1]): 114.9 mmHg
ED50 (Felis catus): 0.26 µmol/kg
Activity (Canis familiaris [2]): 175.7 beats min-1
Activity (Canis familiaris [3]): 82.9 mmHg
Activity (Canis familiaris [4]): 165 beats min-1

Br.CCN1CCC[C@@H]2c3cc(O)c(O)cc3CC[C@H]21
Activity (Canis familiaris [1]): 115.4 mmHg
ED50 (Felis catus): 0.0009 µmol/kg
Activity (Canis familiaris [2]): 176.9 beats min-1
Activity (Canis familiaris [3]): 90.9 mmHg
Activity (Canis familiaris [4]): 161.3 beats min-1

Br.CN1CCCC2c3cc(O)c(O)cc3CCC21 (cis isomer)
Activity (Canis familiaris [1]): 125.8 mmHg
ED50 (Felis catus): 0.31 µmol/kg
Activity (Canis familiaris [2]): 174 beats min-1
Activity [5]: 2 mg/kg
Activity (Canis familiaris [3]): 95.4 mmHg
Activity (Canis familiaris [4]): 158.6 beats min-1
